Test results reported in patent US20090221989A1, “SYSTEM AND METHOD FOR THE PREVENTION AND TREATMENT OF BACTERIAL AND FUNGAL INFECTIONS INCLUDING URINARY TRACT INFECTIONS (UTI) USING A HYPOHALOUS ACID COMPOSITION” (Novabay Pharmaceuticals Inc, priority 2005, published 2009).

Tests used:
[1] = test system: urease positive Escherichia coli ATCC 25922 biofilm; experiment: Biofilm eradication in in vitro urinary catheter flow model; format: cell-based; details: for Log (CFU/cm2) / Log reduction: pH 4, 0.9% NaCl; for Log (CFU/cm2): 3-day biofilm, 10 min flow + 30 min stationary, average of 9 treatments; for Log reduction: versus saline
Method: A test system was established which utilized size 14 Foley catheters (supplied by NovaCal), which were cut and installed into a pre-sterilized flow system (FIG. 1) using aseptic techniques. The system consists of five parallel channels, one channel per catheter. Sterile medium was supplied to the system via a flow-break, to prevent back-growth into the medium reservoir. The entire system was placed in a 37° C. incubator. After conditioning the system with artificial urine medium for 30 minutes, 2.0 ml inoculum from an overnight culture of urease positive Escherichia coli ATCC 25922 grown in artificial urine medium at 37° C. was introduced into the system via the valve closest to the flow break (bladder side of catheter). Each inoculum was tested to confirm urease production. After inoculation, the system remained under static conditions (no flow) for two hours, to allow for bacterial attachment to the catheters. Flow of artificial urine medium was then initiated and maintained at a rate of 0.75 ml/min for 3 days. Initial experiments were conducted to evaluate consistency of biofilm formation in the model system. […] Day 5 and Day 7 counts remained at approximately that level. It was decided that treatment would be performed on Day 3 to prevent the possibility of biofilm detachment occurring. […] Sterile sections of tubing were attached from the syringe to the valve furthest from the flow break (bag end of the catheter). This end is designated as FRONT for sampling purposes. The pump was turned on and the treatments were introduced at 2.0 ml/min for 10 minutes through the catheters. Excess medium and treatment solution was captured in a waste container. After 10 minutes, the syringe pump was turned off and the solutions were left stationary in the catheters for 30 minutes. The solutions were then withdrawn back through the catheter into the syringe, medium flow was resumed for a 30 minute rinse time and the catheters were then sampled. For efficient sampling: Each catheter was divided into 3 segments (front, middle, end) and each segment was subsampled. One subsample was used to determine bacterial populations by plate count, another subsample was analyzed by staining with the LIVE/DEAD® BaclightTM bacterial viability kit ([…], Molecular Probes, Oregon, USA) using confocal laser microscopy (CSLM), the third sample was imaged using scanning electron microscopy (SEM). For viable cell counts, a 3.0 centimeter section of tubing was removed and scraped with a sterile stainless steel rod (using aseptic technique) into a tube containing 10.0 ml of sterile phosphate-buffered saline (PBS). The tubes were then sonicated for two minutes and the suspension was vortexed for one minute. The number of viable (culturable) bacteria was enumerated by serial dilution in PBS and plate counts using the spread-plate technique. Results were expressed as CFU/cm^2 and are calculated as follows: The surface area of the internal lumen of the catheter section scraped was determined to be 2.826 cm^2. Three treatment runs were performed on 3 catheters each. One treated with PBS or sterile 0.9% saline as control, one treated with 2 mM HOCl and one treated with 20 mM HOCl. The Log (CFU/cm^2) was calculated from the average of 9 treatments, consisting of 3 treatments of 3 catheter pieces for each Test Article.

[2] = test system: Escherichia coli ATCC 25922 biofilm; experiment: Biofilm disinfection on 1-cm Foley catheter pieces, plate count; format: cell-based; details: HOCl 2 mM in 0.9% saline pH 3.5, 48 h biofilm
Method: (§1) We have devised a dynamic in vitro model using traditional microbiological methods to assess the antimicrobial efficacy of 2 mM HOCl in 0.9% saline at pH 3.5, as compared to physiological saline in disinfecting intra-luminal and extra-luminal indwelling Foley catheter.
(§2) Foley Catheter, manufactured by BARD HOCl (2 mM) in 0.9% saline pH 3.5 (150 mM) Escherichia coli ATCC 25922 Proteus mirabilis ATCC 29245
(§3) Neutralizer Broth: A broth containing dextrose, lecithin, sodium thiosulfate, pancreatic digest of casein, Tween® 80, yeast extract, sodium bisulfate, sodium thioglycollate, monopotassium phosphate, and bromcresol purple.
(§4) The ability of HOCl to destroy biofilm formation was evaluated as follows. First, biofilm was established on 1-cm-long pieces of catheter for 48 hours in nutrient broth in the presence of either Proteus mirabilis or Escherichia coli. Subsequently, the biofilm-bearing pieces of catheter were exposed to 2 mM HOCl in 0.9% saline at pH 3.5 over various periods of time. After the exposures the pieces of catheter were transferred into 1 mL of neutralizer broth to stop the reaction. 0.1 mL (10%) of the neutralizer broth was then plated out onto nutrient agar and the number of colonies was counted. The CFU (Colony Forming Unit) values obtained were multiplied by 10 to obtain the actual CFU/mL values per treated sample.

[3] = test system: Proteus mirabilis ATCC 29245 biofilm; experiment: as above; format: cell-based; details: HOCl 2 mM in 0.9% saline pH 3.5, 48 h biofilm
Method: as §1, §2, §3, §4

[4] = test system: viable (culturable) bacteria on patient catheter; experiment: Ex-vivo treatment of a patient Foley catheter, viable plate counts; format: cell-based
Source text: A Foley catheter was removed from a patient by hospital personnel and placed in a sterile bag. In the Bozeman Deaconess Hospital (BDH) lab, the outside of the catheter was wiped down with 70% ethanol. Then the catheter was aseptically cut into 3 catheter portions (bag-end, middle and patient-end). Each portion was cut into 3.0 cm long sections using a ruler and razor blades.
Three of the sections (one bag-end, one middle and one patient-end) designated as control were placed into sterile PBS. Three of the sections (one bag-end, one middle and one patient-end) were placed in 20 mM HOCl. All catheter sections were treated for 30 minutes individually in sterile glass tubes, each with sufficient solution to be immersed completely. After treatment, each 3 cm section was removed from the treatment tubes and the PBS control tubes and placed into a second glass tube containing sterile PBS for a 2 minute rinse in order to remove the treatment solution. The section was then removed from the tube and aseptically cut into 1.0 cm and 2.0 cm pieces. The 2.0 cm piece was placed in a tube containing 10 ml of sterile PBS, vortexed, sonicated and diluted for viable plate counts. The number of viable (culturable) bacteria was enumerated by serial dilution in PBS and plate counts using the spread-plate technique. Samples were plated on blood agar plates. Results will be expressed as colony-forming units/cm^2, CFU/cm^2 (calculated as 2.0 cm length×0.25 cm (radius)×3.14 (pi)=1.57 cm^2). The 1.0 cm piece was placed in 4% formaldehyde solution.

[5] = test system: urease positive Escherichia coli ATCC 25922 biofilm; experiment: Biofilm prevention in in vitro urinary catheter flow model; format: cell-based
Method: Day 0: The test system, as described in detail above, utilized size 14 Foley catheters, cut and installed into a pre-sterilized flow system using aseptic techniques. Sterile medium was supplied to the system via a flow-break, to prevent back-growth into the medium reservoir. The entire system was placed into a 37 AC incubator. After conditioning the system with artificial urine medium for 30 minutes, each catheter was treated with a disinfectant. 20.0 ml of each treatment solution was loaded into 30 ml syringes and connected to a syringe pump. Sterile sections of tubing were attached from the syringe to the valve furthest from the flow break (bag end of the catheter). This end is designated as FRONT for sampling purposes. The pump was turned on and the treatments were introduced at 2.0 ml/min for 10 minutes through the catheters. Excess medium and treatment solution was captured in a waste container. After 10 minutes, the syringe pump was turned off and the solutions were left stationary in the catheters for 30 minutes. The solutions were then withdrawn back through the catheter into the syringe. The catheters were then rinsed with sterile medium for 30 minutes. On Day 0 only: An inoculum from an overnight culture of urease positive Escherichia coli ATCC 25922 grown in artificial urine medium at 37° C. was introduced into the system via the valve closest to the flow break (bladder side of catheter). Each inoculum was tested for confirmation of urease production. After inoculation, the system remained under static conditions (no flow) for two hours, to allow for bacterial attachment to the catheters. Flow of artificial urine medium was then initiated and maintained at a rate of 0.75 ml/min. Days 1, 3 and 5: For viable cell counts, a 3.0 centimeter section of tubing was removed and scraped with a sterile stainless steel rod (using aseptic technique) into a tube containing 10.0 ml of sterile PBS. The tubes were then sonicated for two minutes and the suspension was vortexed for one minute. The number of viable (culturable) bacteria was enumerated by serial dilution in PBS and plate counts using the spread-plate technique. Results are expressed as CFU/cm^2 and were calculated as described in Phase One. Days 1 and 3: After sampling, the catheters were disinfected and rinsed with sterile medium as described above. Days 2 and 4: the catheters were disinfected and rinsed with sterile medium as described above. No samples were taken. Day 5: Samples were taken for imaging and both ends of the catheter were sampled for viable cell count data.

[6] = test system: E. coli and Pr. mirabilis biofilm; experiment: Biofilm disinfection on Foley catheter pieces, both organisms pooled: re-culture OD600, overall CFU, visual examination; format: cell-based, Escherichia coli; Proteus mirabilis; details: HOCl 2 mM in 0.9% saline pH 3.5
Method: as §4, with “sample. In order to measure the amount of live bacteria left on the pieces of catheter following treatment, the biofilm-bearing pieces of catheter were transferred into tubes containing fresh growth medium. After allowing growth in a shaker at 37° C. for 4 hours, Optical Density (OD) was read at 600 nm. […] This was also shown by very low optical density readings (average of 0.057 OD600 units, individual data not listed) following the attempt to re-culture the bacteria from treated catheters.” for “sample.”

[7] = HOCl 20 mM, pH 4, 0.9% NaCl, 30 minutes immersion

In the case of `OCl` [HOCl, hypochlorous acid], the “Log (CFU/cm2)” value ([1]; HOCl 2 mM) is reported as 4.8 Log (CFU/cm2), the “Log reduction” value ([1]; HOCl 2 mM) is reported as −4.3 and the “bacterial removal, higher versus lower concentration” value ([1]; HOCl 20 mM versus 2 mM) is reported as “significantly more bacterial removal than the lower concentration”. For the same molecule, the “Log (CFU/cm2)” value ([1]; HOCl 20 mM) was 2.5 Log (CFU/cm2), the “Log reduction” value ([1]; HOCl 20 mM) was −6.6 and the “bacterial counts and presence of biofilm (visual interpretation from images)” value ([1]; HOCl at 2 mM and 20 mM) was “significantly reduced bacterial counts and the presence of biofilm”. For the same molecule, the CFU/mL ([2]; exposure 5 min) was 460 CFU/mL, the CFU/mL ([2]; exposure 10 min) was 0 CFU/mL and the CFU/mL ([2]; exposure 20 min) was 0 CFU/mL. It also gave a CFU/mL ([2]; exposure 30 min) of 0 CFU/mL, a CFU/mL ([2]; exposure 45 min) of 0 CFU/mL and a CFU/mL ([2]; exposure 60 min) of 0 CFU/mL. The CFU/mL ([2]; exposure 120 min) was 0 CFU/mL, the CFU/mL ([2]; exposure <1 min) was 50 CFU/mL and the CFU/mL ([3]; exposure 5 min) was 110 CFU/mL. It also gave a CFU/mL ([3]; exposure 10 min) of 40 CFU/mL, a CFU/mL ([3]; exposure 20 min) of 50 CFU/mL and a CFU/mL ([3]; exposure 30 min) of 0 CFU/mL. It also gave a CFU/mL ([3]; exposure 45 min) of 20 CFU/mL, a CFU/mL ([3]; exposure 60 min) of 0 CFU/mL and a CFU/mL ([3]; exposure 120 min) of 90 CFU/mL. The CFU/mL ([3]; exposure <1 min) was >>3000 CFU/mL, the Log reduction ([4]; HOCl 20 mM versus sterile PBS, average of 3 pieces) was 2.4 and the “Average Log CFU/cm^2 on catheter section after treatment, Bag end” value [4, 7] was 0.50 Log CFU/cm^2. The “Average Log CFU/cm^2 on catheter section after treatment, average 3 pieces” value [4, 7] was 0.53 Log CFU/cm^2, the “Average Log CFU/cm^2 on catheter section after treatment, middle” value [4, 7] was 0.58 Log CFU/cm^2 and the “Average Log CFU/cm^2 on catheter section after treatment, patient end” value [4, 7] was 0.50 Log CFU/cm^2. The “inhibition of biofilm formation” value ([5]; 5 day duration, 20 mM) was “appeared to inhibit biofilm formation”, the “viable cell count Day 1” value ([5]; Day 1, daily treatment, HOCl 20 mM pH 4 0.9% NaCl, vinegar 1:3 in water, Neomycin 1 ml in 1000 ml saline) was 3.5 CFU/cm^2 and the “viable cell count Day 3” value ([5]; Day 3, daily treatment, HOCl 20 mM pH 4 0.9% NaCl, vinegar 1:3 in water, Neomycin 1 ml in 1000 ml saline) was 0.0 CFU/cm^2. The “viable cell count Day 5 “Front” (bag end)” value ([5]; Day 5, bag end, daily treatment, HOCl 20 mM pH 4 0.9% NaCl, vinegar 1:3 in water, Neomycin 1 ml in 1000 ml saline) was 0.0 CFU/cm^2, the “viable cell count Day 5 “End” (bladder end)” value ([5]; Day 5, bladder end, daily treatment, HOCl 20 mM pH 4 0.9% NaCl, vinegar 1:3 in water, Neomycin 1 ml in 1000 ml saline) was 0.0 CFU/cm^2 and the “inhibition of biofilm formation compared to vinegar and Neosporin” value ([5]; especially by Day 5, 20 mM) was “significantly better at inhibiting biofilm formation”. The “visual examination of biofilm on catheter surface” value [6] was “subsequent removal”, the “optical density readings after re-culture of treated catheters (average)” value ([6]; 4 h growth at 37° C. in fresh medium, average, individual data not listed) was 0.057 OD600 units and the “recoverable CFU/mL bacteria” value ([6]; catheters infected 48 hours) was “minimal recoverable CFU/mL bacteria”.
